Consider 18 compounds from EP4800015A1, “AZABICYCLO DERIVATIVE AND PREPARATION METHOD THEREFOR, AND USE” (Zhejiang Hisun Pharmaceutical Co., Ltd., priority 2023, dated 2025).

The target in this test is T1, recombinant human WRN (Homo sapiens, UniProt Q14191).
T1 construct: purchased BPS 101264
T1 sequence (Q14191 whole entry): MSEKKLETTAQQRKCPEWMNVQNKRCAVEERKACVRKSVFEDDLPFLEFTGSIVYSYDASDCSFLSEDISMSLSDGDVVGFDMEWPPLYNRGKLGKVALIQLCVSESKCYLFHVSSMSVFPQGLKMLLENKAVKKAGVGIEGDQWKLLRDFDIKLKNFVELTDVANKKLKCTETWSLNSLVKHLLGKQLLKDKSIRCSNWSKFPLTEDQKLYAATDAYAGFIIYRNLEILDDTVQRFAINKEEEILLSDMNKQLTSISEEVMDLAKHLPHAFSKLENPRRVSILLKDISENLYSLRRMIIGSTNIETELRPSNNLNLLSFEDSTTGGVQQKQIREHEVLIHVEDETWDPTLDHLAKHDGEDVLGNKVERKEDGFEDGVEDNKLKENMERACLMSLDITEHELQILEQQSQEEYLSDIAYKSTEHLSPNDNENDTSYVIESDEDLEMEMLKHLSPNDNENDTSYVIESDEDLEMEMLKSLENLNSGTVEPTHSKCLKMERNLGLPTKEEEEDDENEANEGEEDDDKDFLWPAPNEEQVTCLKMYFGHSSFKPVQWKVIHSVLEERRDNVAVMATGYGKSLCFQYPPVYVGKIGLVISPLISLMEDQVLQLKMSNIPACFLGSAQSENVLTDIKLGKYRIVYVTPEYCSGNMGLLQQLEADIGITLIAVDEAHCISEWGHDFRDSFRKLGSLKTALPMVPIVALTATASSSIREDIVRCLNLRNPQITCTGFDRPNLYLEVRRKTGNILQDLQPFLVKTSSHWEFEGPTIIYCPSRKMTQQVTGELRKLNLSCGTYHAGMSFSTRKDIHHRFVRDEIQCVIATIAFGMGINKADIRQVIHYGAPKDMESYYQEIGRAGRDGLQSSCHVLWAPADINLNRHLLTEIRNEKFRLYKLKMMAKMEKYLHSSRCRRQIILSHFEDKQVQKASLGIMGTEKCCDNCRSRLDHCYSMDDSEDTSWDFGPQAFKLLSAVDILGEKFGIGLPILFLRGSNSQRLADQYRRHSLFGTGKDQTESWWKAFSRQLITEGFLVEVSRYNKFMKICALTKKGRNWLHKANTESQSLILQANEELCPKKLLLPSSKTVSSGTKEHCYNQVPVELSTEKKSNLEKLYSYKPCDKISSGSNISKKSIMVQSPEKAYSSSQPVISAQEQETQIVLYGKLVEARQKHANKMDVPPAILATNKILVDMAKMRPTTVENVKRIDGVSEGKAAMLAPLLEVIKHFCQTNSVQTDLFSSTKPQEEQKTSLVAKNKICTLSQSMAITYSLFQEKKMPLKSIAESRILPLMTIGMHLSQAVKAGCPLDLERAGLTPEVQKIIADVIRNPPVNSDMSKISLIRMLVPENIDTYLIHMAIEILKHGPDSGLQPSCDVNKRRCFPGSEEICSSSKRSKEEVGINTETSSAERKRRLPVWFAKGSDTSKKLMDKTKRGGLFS
As to the kind of experiment: Inhibition of WRN enzyme activity (ATPase), ADP-Glo Kinase Assay. The test is classed as biochemical. The note with it: WRN protein 5 nM, Flap 0.1 nM, ATP 30 µM; read-out: IC50. From the text:
The following method was used to determine the degree of inhibition of recombinant human WRN ATPase activity by the compounds of the present disclosure in vitro. In this method, ADP-Glo™ Kinase Assay kit (catalog No. V9102) from Promega was used. Detailed experimental procedures can be found in the kit manual.
The experimental procedure was briefly described as follows: test compounds were first dissolved in DMSO to prepare stock solutions, followed by serial dilution using reaction buffer (30 mM Tris, pH 7.5, 2 mM MgCl2, 50 mM NaCl, 0.02% BSA, 0.1% Pluronic F127), with final concentrations of test compounds in the reaction system ranging from 1000 nM to 0.004 nM; WRN protein (purchased from BPS, catalog No. 101264), substrate 5-flap oligonucleotide (Flap26) (synthesized by Shanghai Generay Biotech Co., Ltd., sequence 5'-[…]-3'), and ATP working solution (from ADP-Glo™ Kinase Assay kit component V915A) were prepared using reaction buffer. Reactions were performed in 384-well microplates. At first the compounds and recombinant human WRN protein (final concentration 5 nM) were added to the wells and the plate was incubated at room temperature for 15 minutes, then Flap solution (final concentration 0.1 nM) and ATP solution (final concentration 30 µM) were added to the reaction solution and the plate was incubated at room temperature for 10 minutes. Subsequently, 5 µL of ADP-Glo Reagent was added to the reaction system and incubated at room temperature for 40 minutes. Then 10 µL of Kinase Detection Reagent was added to the reaction system and incubated at room temperature for 30 minutes. After the incubation was completed, chemiluminescence intensity values of each well were measured using a microplate reader in luminescence mode. The percentage inhibition of the compounds at each concentration was calculated by comparison with the luminescence intensity values of the control group (0.1% DMSO), and IC50 values of compounds were obtained by nonlinear regression analysis of compound concentration logarithm-inhibition rate using GraphPad Prism 9 software, as shown in Table 1.
The IC50 value results of the compounds of the present disclosure are expressed as AA and A, respectively as follows: "AA" indicates IC50 ≤ 1 nM; "A" indicates 1 nM < IC50 ≤ 100 nM. Table 1 IC50 of the compounds of the present disclosure for inhibiting WRN enzyme activity (ATPase)
For orientation: ADP-Glo first removes unused ATP, then detects ADP through luciferase.
`CCc1c(N2CCN(C(=O)c3ncnc(C)c3O)CC2)c(=O)n2nc(N3CCCOCC3)nc2n1CC(=O)Nc1ccc(C(F)(F)F)cc1Cl` [Example 1, N-(2-chloro-4-(trifluoromethyl)phenyl)-2-(5-ethyl-6-(4-(5-hydroxy-6-methylpyrimidine-4-carbonyl)piperazin-1-yl)-2-(1,4-oxazepan-4-yl)-7-oxo-[1,2,4]triazolo[1,5-a]pyrimidin-4(7H)-yl)acetamide]: the IC50 (in general, the concentration that gives 50% inhibition) was in the range of 1 to 100 nM.
As for `CCc1c(N2CCN(C(=O)c3ncnc(C)c3O)CC2)c(=O)n2nc(C3CCCC3)nc2n1CC(=O)Nc1ccc(C(F)(F)F)cc1Cl` [Example 2, N-(2-Chloro-4-(trifluoromethyl)phenyl)-2-(2-cyclopentyl-5-ethyl-6-(4-(5-hydroxy-6-methylpyrimidine-4-carbonyl)piperazin-1-yl)-7-oxo-[1,2,4]triazolo[1,5-a]pyrimidin-4(7H)-yl)acetamide], the IC50 lay in the range of 1 to 100 nM.
Then `CCc1c(N2CCN(C(=O)c3ncnc(C)c3O)CC2)c(=O)n2nc(N3CCCCCC3)nc2n1CC(=O)Nc1ccc(C(F)(F)F)cc1Cl` [Example 3, 2-(2-(Azepan-1-yl)-5-ethyl-6-(4-(5-hydroxy-6-methylpyrimidine-4-carbonyl)piperazin-1-yl)-7-oxo-[1,2,4]triazolo[1,5-a]pyrimidin-4(7H)-yl)-N-(2-chloro-4-(trifluoromethyl)phenyl)acetamide], with 1 to 100 nM; and `CCc1c(N2CCN(C(=O)c3ncnc(C)c3O)CC2)c(=O)n2nc(C3CCCCCC3)nc2n1CC(=O)Nc1ccc(C(F)(F)F)cc1Cl` [Example 4, N-(2-chloro-4-(trifluoromethyl)phenyl)-2-(2-cycloheptyl-5-ethyl-6-(4-(5-hydroxy-6-methylpyrimidine-4-carbonyl)piperazin-1-yl)-7-oxo-[1,2,4]triazolo[1,5-a]pyrimidin-4(7H)-yl)acetamide], with 1 to 100 nM.
On to `CCc1c(N2CCN(C(=O)c3ncnc(C)c3O)CC2)c(=O)n2nc(C(C)C)nc2n1CC(=O)Nc1ccc(C(F)(F)F)cc1Cl` [Example 5, N-(2-chloro-4-(trifluoromethyl)phenyl)-2-(5-ethyl-6-(4-(5-hydroxy-6-methylpyrimidine-4-carbonyl)piperazin-1-yl)-2-isopropyl-7-oxo-[1,2,4]triazolo[1,5-a]pyrimidin-4(7H)-yl)acetamide], for which the IC50 lay in the range of 1 to 100 nM.
Then `CCc1c(N2CCN(C(=O)c3ncnc(C)c3O)CC2)c(=O)n2nc(N3CCC3)nc2n1CC(=O)Nc1ccc(C(F)(F)F)cc1Cl` [Example 7, 2-(2-(azetidin-1-yl)-5-ethyl-6-(4-(5-hydroxy-6-methylpyrimidine-4-carbonyl)piperazin-1-yl)-7-oxo-[1,2,4]triazolo[1,5-a]pyrimidin-4(7H)-yl)-N-(2-chloro-4-(trifluoromethyl)phenyl)acetamide], with 1 to 100 nM; and `CCc1c(N2CCN(C(=O)c3ncnc(C)c3O)CC2)c(=O)n2nc(N3CC4(CCOCC4)C3)nc2n1CC(=O)Nc1ccc(C(F)(F)F)cc1Cl` [Example 8, N-(2-chloro-4-(trifluoromethyl)phenyl)-2-(5-ethyl-6-(4-(5-hydroxy-6-methylpyrimidine-4-carbonyl)piperazin-1-yl)-7-oxo-2-(7-oxa-2-azaspiro[3.5]nonan-2-yl)-[1,2,4]triazolo[1,5-a]pyrimidin-4(7 H)-yl)acetamide], with 1 to 100 nM; and `CCc1c(N2CCN(C(=O)c3ccncc3O)CC2)c(=O)n2nc(C3=CCCCCC3)nc2n1CC(=O)Nc1ccc(C(F)(F)F)cc1Cl` [Example 9, N-(2-chloro-4-(trifluoromethyl)phenyl)-2-(2-(cyclohept-1-en-1-yl)-5-ethyl-6-(4-(3-hydroxyisonic otinoyl)piperazin-1-yl)-7-oxo-[1,2,4]triazolo[1,5-a]pyrimidin-4(7H)-yl)acetamide], with below 1 nM.
Then `CCc1c(N2CCN(C(=O)c3ccccc3O)CC2)c(=O)n2nc(C3=CCCCCC3)nc2n1CC(=O)Nc1ccc(C(F)(F)F)cc1Cl` [Example 10, N-(2-chloro-4-(trifluoromethyl)phenyl)-2-(2-(cyclohept-1-en-1-yl)-5-ethyl-6-(4-(2-hydroxybenzoyl)piperazin-1-yl)-7-oxo-[1,2,4]triazolo[1,5-a]pyrimidin-4(7H)-yl)acetamide], with 1 to 100 nM; and `CCc1c(N2CCN(C(=O)c3cccc(C)c3O)CC2)c(=O)n2nc(C3=CCCCCC3)nc2n1CC(=O)Nc1ccc(C(F)(F)F)cc1Cl` [Example 11, N-(2-Chloro-4-(trifluoromethyl)phenyl)-2-(2-(cyclohept-1-en-1-yl)-5-ethyl-6-(4-(2-hydroxy-3-methylbenzoyl)piperazin-1-yl)-7-oxo-[1,2,4]triazolo[1,5-a]pyrimidin-4(7H)-yl)acetamide], with 1 to 100 nM.
Then `CCc1c(N2CCN(C(=O)c3ncnc(C)c3O)CC2)c(=O)n2nc(C3CCCCC3)nc2n1CC(=O)Nc1ccc(C(F)(F)F)cc1Cl` [Example 12, N-(2-Chloro-4-(trifluoromethyl)phenyl)-2-(2-cyclohexyl-5-ethyl-6-(4-(5-hydroxy-6-methylpyrimidine-4-carbonyl)piperazin-1-yl)-7-oxo-[1,2,4]triazolo[1,5-a]pyrimidin-4(7H)-yl)acetamide], with 1 to 100 nM.
Turning to `CCc1c(N2CCN(C(=O)c3ncnc(C)c3O)CC2)c(=O)n2nc(N3CCC4(CCNC4=O)CC3)nc2n1CC(=O)Nc1ccc(C(F)(F)F)cc1Cl` [Example 13, N-(2-chloro-4-(trifluoromethyl)phenyl)-2-(5-ethyl-6-(4-(5-hydroxy-6-methylpyrimidine-4-carbonyl)piperazin-1-yl)-7-oxo-2-(1-oxo-2,8-diazaspiro[4.5]decan-8-yl)-[1,2,4]triazolo[1,5-a]pyrimidin-4(7H)-yl)acetamide], the IC50 fell in the range of 1 to 100 nM.
The figure for `CCc1c(N2CCN(C(=O)c3ccncc3O)CC2)c(=O)n2nc(C3=CC4CC(=O)CC4C3)nc2n1CC(=O)Nc1ccc(C(F)(F)F)cc1Cl` (stereo not drawn) [Example 14, N-(2-chloro-4-(trifluoromethyl)phenyl)-2-(5-ethyl-6-(4-(3-hydroxyisonicotinoyl)piperazin-1-yl)-7-oxo-2-(5-oxo-1,3a,4,5,6,6a-hexahydropentalen-2-yl)-[1,2,4]triazolo[1,5-a]pyrimidin-4(7H)-yl)a cetamide] is 1 to 100 nM; for `CCc1c(N2CCN(C(=O)c3ncnc(C)c3O)CC2)c(=O)n2nc(NCCCCl)nc2n1CC(=O)Nc1ccc(C(F)(F)F)cc1Cl` [Example 15, N-(2-chloro-4-(trifluoromethyl)phenyl)-2-(2-((3-chloropropyl)amino)-5-ethyl-6-(4-(5-hydroxy-6-methylpyrimidine-4-carbonyl)piperazin-1-yl)-7-oxo-[1,2,4]triazolo[1,5-a]pyrimidin-4(7H)-yl)ace tamide] it is 1 to 100 nM; for `CCc1c(N2CCN(C(=O)c3ncnc(C)c3O)CC2)c(=O)n2nc(N3CC4(COC4)C3)nc2n1CC(=O)Nc1ccc(C(F)(F)F)cc1Cl` [Example 16, N-(2-chloro-4-(trifluoromethyl)phenyl)-2-(5-ethyl-6-(4-(5-hydroxy-6-methylpyrimidine-4-carbonyl)piperazin-1-yl)-7-oxo-2-(2-oxa-6-azaspiro[3.3]heptan-6-yl)-[1,2,4]triazolo[1,5-a]pyrimidin-4(7H)-yl)acetamide] it is 1 to 100 nM.
The figure for `CCc1c(N2CCN(C(=O)c3ncnc(C)c3O)CC2)c(=O)n2nc(C=C3CCCCC3)nc2n1CC(=O)Nc1ccc(C(F)(F)F)cc1Cl` [Example 20, N-(2-chloro-4-(trifluoromethyl)phenyl)-2-(2-(cyclohexylidenemethyl)-5-ethyl-6-(4-(5-hydroxy-6-methylpyrimidine-4-carbonyl)piperazin-1-yl)-7-oxo-[1,2,4]triazolo[1,5-a]pyrimidin-4(7H)-yl)ac etamide] is 1 to 100 nM; for `CCc1c(N2CCN(C(=O)c3ncnc(C)c3O)CC2)c(=O)n2nc(C=C3CCOCC3)nc2n1CC(=O)Nc1ccc(C(F)(F)F)cc1Cl` [Example 21, N-(2-chloro-4-(trifluoromethyl)phenyl)-2-(5-ethyl-6-(4-(5-hydroxy-6-methylpyrimidine-4-carbonyl)piperazin-1-yl)-7-oxo-2-((tetrahydro-4H-pyran-4-ylidene)methyl)-[1,2,4]triazolo[1,5-a]pyrimidin-4(7H)-yl)acetamide] it is 1 to 100 nM.
Then `CCc1c(N2CCN(C(=O)c3ncnc(C)c3O)CC2)c(=O)n2nc(C3=CC4CCC3C4)nc2n1CC(=O)Nc1ccc(C(F)(F)F)cc1Cl` (stereo not drawn) [Example 23, 2-(2-(bicyclo[2.2.1]hept-2-en-2-yl)-5-ethyl-6-(4-(5-hydroxy-6-methylpyrimidine-4-carbonyl)piperazin-1-yl)-7-oxo-[1,2,4]triazolo[1,5-a]pyrimidin-4(7H)-yl)-N-(2-chloro-4-(trifluoromethyl)phenyl)acetamide], with 1 to 100 nM.
